Measurements: US8969248B2, “5-iodotriazole derivatives” (Bayer Intellectual Property GmbH, priority 2010, dated 2015)

Assays:
Format in all cases: in vivo
Sphaerotheca fuliginea = experiment: Sphaerotheca test (cucumber)/protective; conditions: protective spray, 500 ppm, evaluation 7 days after inoculation
Protocol: (§1) [table] To produce an appropriate active ingredient formulation, 1 part by weight of active ingredient is mixed with the specified amounts of solvent and emulsifier, and the concentrate is diluted with water to the desired concentration. To test for protective activity, young cucumber plants are sprayed with the active ingredient formulation at the stated application rate. 1 day after the treatment, the plants are inoculated with a spore suspension of Sphaerotheca fuliginea. The plants are then placed in a greenhouse at 70% relative air humidity and a temperature of 23° C.

Puccinia recondita [1] = experiment: Puccinia test (wheat)/protective; conditions: protective spray, 500 ppm, evaluation 7-9 days after inoculation
[2] = test system: Blumeria graminis f. sp. hordei; experiment: Blumeria graminis test (barley)/protective; conditions: protective spray, 500 ppm, evaluation 7 days after inoculation
Protocol: (§2) [table] To produce an appropriate active ingredient formulation, 1 part by weight of active ingredient is mixed with the specified amounts of solvent and emulsifier, and the concentrate is diluted with water to the desired concentration. To test for protective activity, young plants are sprayed with the active ingredient formulation at the stated application rate. After the spray coating has dried on, the plants are dusted with spores of Blumeria graminis f. sp. hordei.

Pyrenophora teres = Pyrenophora teres test (barley)/protective; conditions: protective spray, 500 ppm, evaluation 8 days after inoculation
Protocol: as §2, with “sprayed” for “dusted”, “a spore suspension” for “spores”, “Pyrenophora teres.” for “Blumeria graminis f. sp. hordei.”

Botrytis cinerea = experiment: Botrytis test (bean)/protective; conditions: protective spray, 250 ppm, evaluation 2 days after inoculation
Protocol: as §2, with “2 small pieces of agar colonized by Botrytis cinerea” for “the plants”, “placed onto each leaf.” for “dusted with spores of Blumeria graminis f. sp. hordei.”

Leptosphaeria nodorum = Leptosphaeria nodorum test (wheat)/protective; conditions: protective spray, 500 ppm, evaluation 8 days after inoculation
Protocol: as §2, with “sprayed” for “dusted”, “spores with a spore suspension” for “spores”, “Leptosphaeria nodorum.” for “Blumeria graminis f. sp. hordei.”

Fusarium graminearum = conditions: barley, protective spray, 500 ppm, evaluation 5 days after inoculation
Venturia inaequalis = experiment: Venturia test (apple)/protective; conditions: protective spray, 100 ppm, evaluation 10 days after inoculation
Protocol: as §1, with “young” for “young cucumber”, “1 day after the treatment, the plants are inoculated with a spore suspension of Sphaerotheca fuliginea.” left out, “approx. 21° C. and a” for “70%”, “humidity” for “humidity and a temperature”, “approx. 90%.” for “23° C.”

Uromyces appendiculatus = experiment: Uromyces test (bean)/protective; conditions: protective spray, 100 ppm, evaluation 10 days after inoculation
Protocol: as §1, with “young” for “young cucumber”, “1 day after the treatment, the plants are inoculated with a spore suspension of Sphaerotheca fuliginea.” left out, “approx. 21° C. and a” for “70%”, “humidity” for “humidity and a temperature”, “approx. 90%.” for “23° C.”

Septoria tritici = Septoria tritici test (wheat)/protective; conditions: protective spray, 500 ppm, evaluation 21 days after inoculation
Pyricularia oryzae = conditions: rice, protective spray, 250 ppm, evaluation 5 days after inoculation
Cochliobolus miyabeanus = experiment: Cochliobolus test (rice)/protective; conditions: protective spray, 250 ppm, evaluation 4 days after inoculation
Phakopsora pachyrhizi = experiment: Phakopsora test (soya beans)/protective; conditions: protective spray, 100 ppm, evaluation 1 days after inoculation (so in the source)
Puccinia recondita [3] = experiment: Puccinia test (wheat)/seed treatment; conditions: dose 50 g/dt (rate 100 [sic]), inoculated 14 days after sowing, evaluated 9 days later, infected leaf area
Protocol: The test was conducted under greenhouse conditions. Wheat seeds treated with an inventive active compound or a combination of inventive active compounds were sown in 6×6 cm vessels, into a mixture of steamed field soil and sand (1:1). The test compound(s) were dissolved in N-methyl-2-pyrrolidone and diluted to the desired concentration with water. The wheat grains treated were sown and placed in a greenhouse at 10° C. 14 days after sowing, the plants were inoculated with a spore suspension of Puccinia recondita. The plants were incubated at 20° C. for a further 9 days. […] In this test, the following inventive compounds show an efficiency of 70% or higher at a dose of 50 g/dt: […]

Leptosphaeria maculans = experiment: Leptosphaeria test (oilseed rape)/seed treatment; conditions: dose 50 g/dt (rate 100 [sic]), 14 days at 10° C. and 7 days at 18° C., counting emerged plants
Protocol: The test was conducted under greenhouse conditions. […] treated with an inventive active compound or a combination of inventive active compounds were sown in 6×6 cm vessels, into a mixture of steamed field soil and sand (1:1). The test compound(s) were dissolved in N-methyl-2-pyrrolidone and diluted to the desired concentration with water. Perlite was inoculated with spores of Leptosphaeria maculans. The infected perlite was distributed between the treated […]. The seeds were covered with a top layer of steamed field soil and sand (1:1) and incubated in a greenhouse at 10° C. for 14 days and at 18° C. for 7 days. […] In this test, the following inventive compounds show an efficiency of 70% or higher at a dose of 50 g/dt.: […]

Microdochium nivale = experiment: Microdochium test (wheat)/seed treatment; conditions: dose 50 g/dt (rate 100 [sic]), 21 days at 10° C., counting emerged plants
Protocol: The test was conducted under greenhouse conditions. Wheat seeds treated with an inventive active compound or a combination of inventive active compounds were sown in 6×6 cm vessels, into a mixture of steamed field soil and sand (1:1). The test compound(s) were dissolved in N-methyl-2-pyrrolidone and diluted to the desired concentration with water. Wheat kernels were inoculated with spores of Microdochium nivale. The infected and ground kernels were distributed between the treated wheat seeds. The seeds were covered with a top layer of steamed field soil and sand (1:1) and incubated in a greenhouse at 10° C. for 21 days. […] In this test, the following inventive compounds show an efficiency of 70% or higher at a dose of 50 g/dt.

Fusarium culmorum = experiment: Fusarium test (wheat)/seed treatment; conditions: dose 50 g/dt (rate 100 [sic]), 14 days at 20° C., counting emerged plants
Protocol: The test was conducted under greenhouse conditions. Wheat seeds treated with an inventive active compound or a combination of inventive active compounds were sown in 6×6 cm vessels, into a mixture of steamed field soil and sand (1:1). The test compound(s) were dissolved in N-methyl-2-pyrrolidone and diluted to the desired concentration with water. Wheat kernels were inoculated with spores of Fusarium culmorum. The infected and ground kernels were distributed between the treated wheat seeds. The seeds were covered with a top layer of clay granules and incubated in a greenhouse at 20° C. for 14 days. Evaluation was effected by counting the plants which emerged. 0% means an efficacy which corresponds to that of the untreated control, whereas an efficacy of 100% means that all seeds have germinated. In this test, the following inventive compounds show an efficiency of 70% or higher at a dose of 50 g/dt.: […]

Rhizoctonia solani = experiment: Rhizoctonia test (cotton)/seed treatment; conditions: dose 50 g/dt (rate 100 [sic]), 7 days at 20° C., counting emerged and diseased plants
Protocol: The test was conducted under greenhouse conditions. Cottonseeds treated with an inventive active compound or a combination of inventive active compounds were sown in 6×6 cm vessels, into a mixture of steamed field soil and sand (1:1). The test compound(s) were dissolved in N-methyl-2-pyrrolidone and diluted to the desired concentration with water. Perlite was inoculated with spores of Rhizoctonia solani. The infected perlite was distributed between the treated cottonseeds. The seeds were covered with a top layer of clay granules and incubated in a greenhouse at 20° C. for 7 days. […] In this test, the following inventive compounds show an efficiency of 70% or higher at a dose of 50 g/dt: […]

Structure (SMILES)	Efficacy (%) (Sphaerotheca fuliginea)	Efficacy (%) (Puccinia recondita [1])	Efficacy (%) [2]	Efficacy (%) (Pyrenophora teres)	Efficacy (%) (Botrytis cinerea)	Efficacy (%) (Leptosphaeria nodorum)	Efficacy (%) (Fusarium graminearum)	Efficacy (%) (Venturia inaequalis)	Efficacy (%) (Uromyces appendiculatus)	Efficacy (%) (Septoria tritici)	Efficacy (%) (Pyricularia oryzae)	efficacy (Cochliobolus miyabeanus)	Efficacy (%) (Phakopsora pachyrhizi)	Efficacy (%) (Puccinia recondita [3])	Efficacy (%) (Leptosphaeria maculans)	Efficacy (%) (Microdochium nivale)	Efficacy (%) (Fusarium culmorum)	Efficacy (%) (Rhizoctonia solani)
CC(C1CC1)C(O)(Cn1ncnc1I)c1ccc(Cl)cc1 (stereo not shown) [Compound 17]	95%	89%	–	–	–	–	–	–	–	–	–	–	–	–	–	–	–	–
CC(C)(C)C(O)(CCc1ccc(Cl)cc1)Cn1ncnc1I (stereo not shown) [Compound 2]	100%	100%	100%	94%	90%	100%	100%	100%	100%	–	–	–	–	–	–	–	–	–
OC(Cc1ccc(F)cc1)(Cn1ncnc1I)C1(Cl)CC1 (stereo not shown) [Compound 4]	100%	100%	100%	100%	89%	93%	100%	100%	100%	100%	≥ 80%	≥ 80%	–	–	–	–	–	–
OC(Cc1ccccc1Cl)(Cn1ncnc1I)C1(F)CC1 (stereo not shown) [Compound 13]	100%	–	100%	100%	–	86%	100%	99%	100%	100%	–	–	–	–	–	–	–	–
Fc1cccc(C2(Cn3ncnc3I)OC2c2ccccc2Cl)c1 (stereo not shown) [Compound 16]	100%	90%	–	–	–	–	–	–	–	–	–	–	–	–	–	–	–	–
OC(Cn1ncnc1I)(c1ccc(F)cc1F)C1(Oc2ccc(F)cc2)CC1 (stereo not shown) [Compound 10]	100%	100%	–	–	–	–	–	100%	100%	–	97%	–	98%	–	–	–	–	–
OC(Cn1ncnc1I)(c1ccc(Br)cc1)C1(Oc2ccc(F)cc2)CC1 (stereo not shown) [Compound 6]	100%	100%	–	–	–	–	–	–	–	–	–	–	–	–	–	–	–	–
CC1COC(Cn2ncnc2I)(c2ccc(Oc3ccc(Cl)cc3)cc2Cl)O1 (mixture of isomers) [Compound 8]	100%	100%	100%	88%	–	94%	–	100%	100%	–	–	–	98%	–	–	–	–	–
OC(Cc1ccccc1Cl)(Cn1ncnc1I)C1(Cl)CC1 (stereo not shown) [Compound 3]	100%	100%	100%	100%	100%	100%	100%	100%	100%	88%	94%	≥ 98%	98%	100%	100%	100%	100%	100%
OC(Cn1ncnc1I)(c1ccc(Br)cc1)C1(Oc2ccccc2)CC1 (stereo not shown) [Compound 9]	100%	100%	–	–	–	–	–	100%	100%	–	–	–	–	–	–	–	–	–
CC(C)(C)C(O)(COc1ccc(Cl)cc1)Cn1ncnc1I (stereo not shown) [Compound 18]	100%	100%	100%	93%	–	100%	–	100%	100%	100%	–	–	–	–	–	–	–	–
OC(Cn1ncnc1I)(c1ccc(Cl)cc1)C1(Oc2ccccc2F)CC1 (stereo not shown) [Compound 7]	100%	100%	–	–	–	–	–	100%	100%	–	–	–	98%	–	–	–	–	–
Fc1ccc(C2(Cn3ncnc3I)OC2c2ccccc2Cl)cc1 (stereo not shown) [Compound 1]	100%	100%	100%	78%	73%	100%	75%	97%	97%	100%	–	–	–	–	–	–	–	–
OC(Cn1ncnc1I)(c1ccc(F)cc1F)C1(Oc2ccccc2Cl)CC1 (stereo not shown) [Compound 11]	100%	94%	–	–	–	–	–	–	–	–	93%	–	–	–	–	–	–	–
